From US7183267B2, “β-lactamase inhibitors and methods of use thereof” (priority 2003, dated 2007)

Tests used:
[1] = system: methicillin resistant S. aureus from Stanford University Hospital (MRSA-SU); assay: Matrix system: oxacillin plus β-lactamase inhibitor, MRSA-SU; assay type: cell-based
Protocol: (§1) To each well of a 96 well microtiter plate was added 47.5 μl of MHB. A volume of 2.5 μl of each dilution of oxacillin was then transferred to appropriate wells containing the medium. All wells, except the sterility control wells, were then inoculated with 50 μl of a diluted cell suspension to give a final volume of 100 μl and a final cell density of 5×10^4 CFU/well. The volume in the sterility control wells was adjusted to 100 μl with MHB. A sterile pipette tip was used to mix the contents of each well (one tip was used going from the low to the high concentration in the same column). The microtiter plates were covered with the lids and were placed in large Stratagene Big Blue plates (Cat. # 400041). Four large kimwipes moistened with tap water were placed near the edges of the Stratagene plates to prevent evaporation of the medium. The microtiter plates were incubated for at least 24 hours at 35° C. The plates were then evaluated for growth in each well. Controls included: medium sterility and negative control (medium and bacteria only).
(§2) A numerical code was used to evaluate the extent of growth as indicated below. • 0: absence of growth • 1: barely visible (faint) growth • 2: fair growth but less than the negative solvent control • 3: growth is equivalent to the negative solvent control.
(§3) The lowest dose at which no visible growth is observed was determined to be the MIC value.
The effect of the four compounds of the present invention on oxacillin resistance of the MRSA strains was determined using a matrix system. The β-lactamase inhibitors were tested at 5 doses against up to eleven concentrations of oxacillin. […] A 96-well microtiter plate was used for the matrix system. The procedure was identical to that described above for the MIC determination, with the exception that both oxacillin and one each of the β-lactamase inhibitors was added, 2.5 μl each, to the wells prior to addition of the test organisms.
Matrix Study:Oxacillin and Compound FL201 with MRSA-SU
Matrix Study: Oxacillin and Compound FL202 with MRSA-SU

[2] = system: methicillin resistant S. aureus from Stanford University Hospital (MRSA-SU); assay: MIC assay, broth microdilution, MRSA-SU; assay type: cell-based; settings: Staphylococcus aureus, MRSA, 24 h
Text: (2) methicillin resistant S. aureus from Stanford University Hospital Clinical Microbiology/Virology Laboratory (MRSA-SU). […] Such Staphylococci are also resistant to all penicillins, and all cephalosporins, in addition to all β-lactamase inhibitor combinations (including ampicillin/sulbactarn, amoxicillin/clavulanic acid, piperacillin/tazobactam), imipenem, and meropenem; and
The strains were processed according to procedures recommended by ATCC, or procedures that are routinely used. Single colonies of each organism were picked for purification to generate pure working cultures. Prior to each experiment each strain was subcultured on a fresh Mueller-Hinton agar plate (MHA).
Inocula for the MIC assays were prepared by transferring a tiny portion of one colony from a MHA plate to 2 ml of Mueller-Hinton broth (MHB) such that the estimated cell density was about 10^7 colony forming unit (CFU)/ml. This cell suspension was then further diluted 10-fold (to 10^6 CFU/ml) by transferring the 2 ml cell suspension to 18 ml of MHB. Addition of 50 μl of this dilute cell suspension to 50 μl of growth medium yielded the desired cell density, namely about 5×10^4 CFU/well, or 5×10^5 CFU/ml.
The MIC value of oxacillin was determined using the broth microdilution procedure recommended by the National Committee of Clinical Laboratory Standards (NCCLS, 2000).
The MIC experiments were performed in duplicate in 96-well microtiter plates using MHB. A stock solution of 2.6 mg/0.5 ml was prepared in dimethylsulfoxide (DMSO). A total of 8 two-fold serial dilutions were made with DMSO. Initial oxacillin doses used were (μg/ml): 64, 32, 16, 8, 4, 2, 1, and 0.5. Doses were adjusted in the confirmatory experiment, if needed, in order to establish an actual MIC value.
as §1
The procedure used to determine the antimicrobial activity of the compounds of the present invention was identical to the broth microdilution procedure described above with the exception of the preparation of the stock solutions. Stock solution at concentration of 40.96 mg/0.5 ml was prepared in DMSO for each of the compounds. A total of 8 two-fold dilutions were then made in DMSO. A volume of 2.5 μl of each dilution was delivered to appropriate wells. The initial doses used were (μg/ml): 512, 256, 128, 64, 32, 16, 8, and 4.
as §2, §3
MIC assays were performed with oxacillin and the four compounds. Each of the compounds was tested at the following 8 doses (μg/ml): 512, 256, 128, 64, 32, 16, 8, and 4. Oxacillin was tested at the following 8 doses (μg/ml): 64, 32, 16, 8, 4, 2, 1, and 0.5.

Structure (SMILES): COC(=O)c1cc(B(O)O)cc([N+](=O)[O-])c1 [Compound F1202]
- MIC (oxacillin) ([1]; Table 18, in presence of F1202 16 μg/ml): 64 µg/mL
- MIC (oxacillin) ([1]; Table 18, in presence of F1202 32 μg/ml): 4 µg/mL
- MIC (oxacillin) ([1]; Table 18, in presence of F1202 64 μg/ml): 1 µg/mL
- MIC (oxacillin) ([1]; Table 18, in presence of F1202 128 μg/ml): 0.25 µg/mL
- growth score ([1]; Table 18, oxacillin 0, F1202 16 μg/ml): 3
- growth score ([1]; Table 18, oxacillin 0, F1202 32 μg/ml): 3
- growth score ([1]; Table 18, oxacillin 0, F1202 64 μg/ml): 3
- growth score ([1]; Table 18, oxacillin 0, F1202 128 μg/ml): 1
- growth score ([1]; Table 18, oxacillin 0, F1202 256 μg/ml): 0
- growth score ([1]; Table 18, oxacillin 0.064 μg/ml + F1202 16 μg/ml): 1
- growth score ([1]; Table 18, oxacillin 0.064 μg/ml + F1202 32 μg/ml): 1
- growth score ([1]; Table 18, oxacillin 0.064 μg/ml + F1202 64 μg/ml): 1
- growth score ([1]; Table 18, oxacillin 0.064 μg/ml + F1202 128 μg/ml): 1
- growth score ([1]; Table 18, oxacillin 0.064 μg/ml + F1202 256 μg/ml): 0
- growth score ([1]; Table 18, oxacillin 0.125 μg/ml + F1202 16 μg/ml): 1
- growth score ([1]; Table 18, oxacillin 0.125 μg/ml + F1202 32 μg/ml): 1
- growth score ([1]; Table 18, oxacillin 0.125 μg/ml + F1202 64 μg/ml): 1
- growth score ([1]; Table 18, oxacillin 0.125 μg/ml + F1202 128 μg/ml): 1
- growth score ([1]; Table 18, oxacillin 0.125 μg/ml + F1202 256 μg/ml): 0
- growth score ([1]; Table 18, oxacillin 0.25 μg/ml + F1202 16 μg/ml): 1
- growth score ([1]; Table 18, oxacillin 0.25 μg/ml + F1202 32 μg/ml): 1
- growth score ([1]; Table 18, oxacillin 0.25 μg/ml + F1202 64 μg/ml): 1
- growth score ([1]; Table 18, oxacillin 0.25 μg/ml + F1202 128 μg/ml): 0
- growth score ([1]; Table 18, oxacillin 0.25 μg/ml + F1202 256 μg/ml): 0
- growth score ([1]; Table 18, oxacillin 0.5 μg/ml + F1202 16 μg/ml): 1
- growth score ([1]; Table 18, oxacillin 0.5 μg/ml + F1202 32 μg/ml): 1
- growth score ([1]; Table 18, oxacillin 0.5 μg/ml + F1202 64 μg/ml): 1
- growth score ([1]; Table 18, oxacillin 0.5 μg/ml + F1202 128 μg/ml): 0
- growth score ([1]; Table 18, oxacillin 0.5 μg/ml + F1202 256 μg/ml): 0
- growth score ([1]; Table 18, oxacillin 1 μg/ml + F1202 16 μg/ml): 1
- growth score ([1]; Table 18, oxacillin 1 μg/ml + F1202 32 μg/ml): 1
- growth score ([1]; Table 18, oxacillin 1 μg/ml + F1202 64 μg/ml): 0
- growth score ([1]; Table 18, oxacillin 1 μg/ml + F1202 128 μg/ml): 0
- growth score ([1]; Table 18, oxacillin 1 μg/ml + F1202 256 μg/ml): 0
- growth score ([1]; Table 18, oxacillin 2 μg/ml + F1202 16 μg/ml): 1
- growth score ([1]; Table 18, oxacillin 2 μg/ml + F1202 32 μg/ml): 1
- growth score ([1]; Table 18, oxacillin 2 μg/ml + F1202 64 μg/ml): 0
- growth score ([1]; Table 18, oxacillin 2 μg/ml + F1202 128 μg/ml): 0
- growth score ([1]; Table 18, oxacillin 2 μg/ml + F1202 256 μg/ml): 0
- growth score ([1]; Table 18, oxacillin 4 μg/ml + F1202 16 μg/ml): 1
- growth score ([1]; Table 18, oxacillin 4 μg/ml + F1202 32 μg/ml): 0
- growth score ([1]; Table 18, oxacillin 4 μg/ml + F1202 64 μg/ml): 0
- growth score ([1]; Table 18, oxacillin 4 μg/ml + F1202 128 μg/ml): 0
- growth score ([1]; Table 18, oxacillin 4 μg/ml + F1202 256 μg/ml): 0
- growth score ([1]; Table 18, oxacillin 16 μg/ml + F1202 16 μg/ml): 1
- growth score ([1]; Table 18, oxacillin 16 μg/ml + F1202 32 μg/ml): 0
- growth score ([1]; Table 18, oxacillin 16 μg/ml + F1202 64 μg/ml): 0
- growth score ([1]; Table 18, oxacillin 16 μg/ml + F1202 128 μg/ml): 0
- growth score ([1]; Table 18, oxacillin 16 μg/ml + F1202 256 μg/ml): 0
- growth score ([1]; Table 18, oxacillin 64 μg/ml + F1202 16 μg/ml): 0
- growth score ([1]; Table 18, oxacillin 64 μg/ml + F1202 32 μg/ml): 0
- growth score ([1]; Table 18, oxacillin 64 μg/ml + F1202 64 μg/ml): 0
- growth score ([1]; Table 18, oxacillin 64 μg/ml + F1202 128 μg/ml): 0
- growth score ([1]; Table 18, oxacillin 64 μg/ml + F1202 256 μg/ml): 0
- growth score ([1]; Table 18, oxacillin 128 μg/ml + F1202 16 μg/ml): 0
- growth score ([1]; Table 18, oxacillin 128 μg/ml + F1202 32 μg/ml): 0
- growth score ([1]; Table 18, oxacillin 128 μg/ml + F1202 64 μg/ml): 0
- growth score ([1]; Table 18, oxacillin 128 μg/ml + F1202 128 μg/ml): 0
- growth score ([1]; Table 18, oxacillin 128 μg/ml + F1202 256 μg/ml): 0
- growth score ([1]; Table 18, oxacillin 256 μg/ml + F1202 16 μg/ml): 0
- growth score ([1]; Table 18, oxacillin 256 μg/ml + F1202 32 μg/ml): 0
- growth score ([1]; Table 18, oxacillin 256 μg/ml + F1202 64 μg/ml): 0
- growth score ([1]; Table 18, oxacillin 256 μg/ml + F1202 128 μg/ml): 0
- growth score ([1]; Table 18, oxacillin 256 μg/ml + F1202 256 μg/ml): 0
- MIC [2]: 256 µg/mL
